Results published in US20230416330A1, “Optimized GIP Peptide Analogues” (Antag Therapeutics ApS, priority 2019, published 2023).
Starred links: 1 amine or outer side, 2 acyl side, 3 side chain; linkers in the order of their positions; H or OH if unused. Non-standard residues stand in square brackets, D forms with d. Residues, ends and D or L forms follow the SMILES beside them. Groups on a side chain read outwards from the residue. *: point of attachment. C18 diacid = O=C(O)CCCCCCCCCCCCCCCCC(=O)*; C16 diacid = O=C(O)CCCCCCCCCCCCCCC(=O)*; γGlu = O=C(O)[C@H](CCC(=O)[*:2])N[*:1]; AEEA = NCCOCCOCC(=O)O; Aib = CC(C)(N)C(=O)O

Experiments:
[1] = Physical stability: fibril formation in Thioflavin T (ThT) assay with agitation; type: physicochemical; settings: 25° C., agitation
In short: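 Peptides at 1, 5, 7.5 or 15 mg/ml in 50 mM sodium phosphate pH 7.4 or in water adjusted to pH 7.4 with NaOH, filtered 0.22 μm, with ThT added. Wells held a 3 mm silica bead under 300 rpm orbital agitation at 25° C. Emission at 486 nm tracked continuously; lag time = 10% of transition above baseline.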

[2] = Solubility by visual inspection of peptide solutions; type: physicochemical
In short: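 Peptides dissolved at 1, 5, 7.5 or 15 mg/ml in 50 mM sodium phosphate pH 7.4 or water adjusted to pH 7.4 with NaOH, with gentle mixing. Immediate solubility judged visually as a clear, colorless solution.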

human GIP receptor = molecular target: T1, human GIP receptor (Homo sapiens, UniProt P48546); assay: cAMP assay Alternative 1 (CisBio assay), GIPR antagonism; type: cell-based; settings: Table 2B; for cAMP antagonism % inhib: % inhibition of Emax
T1 construct: host or cells: HEK-293 cells, transient transfection (Lipofectamine 2000), cDNA in pCMV-Script vector
T1 sequence (P48546 22-466): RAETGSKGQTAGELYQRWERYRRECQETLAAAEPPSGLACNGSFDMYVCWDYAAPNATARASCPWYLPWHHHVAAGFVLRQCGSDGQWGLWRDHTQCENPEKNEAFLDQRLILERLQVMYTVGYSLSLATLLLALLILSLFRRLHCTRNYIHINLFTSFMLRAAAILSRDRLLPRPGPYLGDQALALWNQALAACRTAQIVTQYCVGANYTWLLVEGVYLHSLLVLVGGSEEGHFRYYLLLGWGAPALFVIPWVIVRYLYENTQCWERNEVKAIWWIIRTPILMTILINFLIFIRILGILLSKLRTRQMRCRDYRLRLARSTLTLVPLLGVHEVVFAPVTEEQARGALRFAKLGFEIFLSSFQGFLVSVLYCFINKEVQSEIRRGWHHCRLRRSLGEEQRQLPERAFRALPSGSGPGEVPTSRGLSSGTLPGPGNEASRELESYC
Description: HEK293 cells were cultured in 10% CO2 and 37° C. in Dulbecco's modified Eagle's medium supplemented with 10% fetal bovine serum, 2 mM glutamine, 180 units/ml penicillin, and 45 µg/ml streptomycin. Transient transfection with hGIPR for the CisBio assay from Table 2C was performed by using Lipofectamine 2000.
The in vitro functional activity of compounds towards human GIP receptor can also be determined in HEK-293 cells transiently expressing the receptor. On the day of the assay, cells were resuspended in HBSS buffer (Gibco, 14025-50) supplemented with […] (Gibco, 15630-106), 0.1% Pluronic F-68 (Gibco, 24040-032) and 0.1% casein (Sigma, C4765), and plated in 384-well plates at a density of 5000 cells/well. The GIP peptide analogues of the present disclosure were diluted in HBSS buffer supplemented with 20 mM HEPES, 0.1% pluronic, 0.1% casein and 500 uM IBMX. […] The resulting decrease in intracellular cAMP was quantitatively determined using the CisBio cAMP Dynamic 2 HTRF Assay Kit. The assay is based on a competition between native cAMP produced by cells and cAMP labeled with the dye d2 for binding to a cryptate labeled antibody. The specific signal (i.e. energy transfer signal) is inversely proportional to the concentration of cAMP in the sample.
The cAMP-d2 conjugate and the antibody anti-cAMP-Cryptate, both diluted in lysis buffer provided in the kit, were added to the cells according to the manufacturer's protocol. The resulting competitive assay was incubated for 60 minutes at room temperature, and the signal was detected by using a PerkinElmer Envision® instrument with excitation at 320 nm and emission at 665 nm and 620 nm. The HTRF ratio (emission at 665 nm/620 nm*10,000) is inversely proportional to the amount of cAMP present and is converted to nM cAMP per well using a cAMP standard curve. The dose-response curves were fitted using the non-linear regression analysis (four-logistic parameter equation) in GraphPad Prism, whereby pIC50 values were estimated. To test for agonistic properties at the GIP receptor, compounds were diluted and added to cells as described above and incubated for 30 min at 37° C. The resulting increase in intracellular cAMP was determined using the CisBio cAMP Dynamic 2 HTRF Assay Kit as described above.
The dose-response curves were fitted using the non-linear regression analysis (four-logistic parameter equation) in GraphPad Prism, whereby pIC50 values were estimated.

CC[C@H](C)[C@H](NC(=O)[C@H](CCCCN)NC(=O)[C@H](CC(=O)O)NC(=O)[C@H](CC(C)C)NC(=O)C(C)(C)NC(=O)[C@@H](NC(=O)[C@H](CO)NC(=O)[C@H](Cc1ccc(O)cc1)NC(=O)[C@H](CC(=O)O)NC(=O)[C@H](CO)NC(=O)[C@@H](NC(=O)[C@H](Cc1ccccc1)NC(=O)[C@@H](NC(=O)CNC(=O)[C@@H](N)CCC(=O)O)[C@@H](C)O)[C@@H](C)CC)[C@@H](C)CC)C(=O)N[C@@H](CCCCNC(=O)CCCCCCCCCCCCCCC(=O)O)C(=O)N[C@@H](CCC(N)=O)C(=O)N[C@@H](CCC(N)=O)C(=O)N[C@@H](CC(=O)O)C(=O)N[C@@H](Cc1ccccc1)C(=O)N[C@H](C(=O)N[C@@H](CCC(=O)O)C(=O)N[C@@H](Cc1c[nH]c2ccccc12)C(=O)N[C@@H](CC(C)C)C(=O)N[C@@H](CC(C)C)C(=O)N[C@@H](C)C(=O)N[C@@H](CCC(N)=O)C(=O)N[C@@H](CCCCN)C(=O)N1CCC[C@H]1C(=O)N[C@@H](CO)C(=O)N[C@@H](CO)C(=O)NCC(=O)N[C@@H](C)C(=O)N1CCC[C@H]1C(=O)N1CCC[C@H]1C(=O)N1CCC[C@H]1C(=O)N[C@@H](CO)C(=O)O)C(C)C [AT666] (H-EGTFISDYSI[Aib]LDKIK(C16 diacid)QQDFVEWLLAQKPSSGAPPPS-OH; N-terminus assumed)
Avr lag time (h) ([1]; 1 mg/ml, TFA, Phosphate (7.4)): fnd (Fnd = fibrils not detected within experiment time (96 hours) with agitation.)
Visual appearance ([2]; 1 mg/ml, TFA, Phosphate (7.4)): Clear
cAMP antagonism % inhib (human GIP receptor): 89%

CC[C@H](C)[C@H](NC(=O)[C@H](CCCCN)NC(=O)[C@H](CC(=O)O)NC(=O)[C@H](CC(C)C)NC(=O)C(C)(C)NC(=O)[C@@H](NC(=O)[C@H](CO)NC(=O)[C@H](Cc1ccc(O)cc1)NC(=O)[C@H](CC(=O)O)NC(=O)[C@H](CO)NC(=O)[C@@H](NC(=O)[C@H](Cc1ccccc1)NC(=O)[C@@H](NC(=O)CNC(=O)[C@@H](N)CCC(=O)O)[C@@H](C)O)[C@@H](C)CC)[C@@H](C)CC)C(=O)N[C@@H](CCCCNC(=O)COCCOCCNC(=O)COCCOCCNC(=O)CC[C@H](NC(=O)CCCCCCCCCCCCCCCCC(=O)O)C(=O)O)C(=O)N[C@@H](CCC(N)=O)C(=O)N[C@@H](CCC(N)=O)C(=O)N[C@@H](CC(=O)O)C(=O)N[C@@H](Cc1ccccc1)C(=O)N[C@H](C(=O)N[C@@H](CCC(=O)O)C(=O)N[C@@H](Cc1c[nH]c2ccccc12)C(=O)N[C@@H](CC(C)C)C(=O)N[C@@H](CC(C)C)C(=O)N[C@@H](C)C(=O)N[C@@H](CCC(N)=O)C(=O)N[C@@H](CCCCN)C(=O)N1CCC[C@H]1C(=O)N[C@@H](CO)C(=O)N[C@@H](CO)C(=O)NCC(=O)N[C@@H](C)C(=O)N1CCC[C@H]1C(=O)N1CCC[C@H]1C(=O)N1CCC[C@H]1C(=O)N[C@@H](CO)C(=O)O)C(C)C [AT685] (H-EGTFISDYSI[Aib]LDKIK([AEEA-AEEA-γGlu-C18 diacid])QQDFVEWLLAQKPSSGAPPPS-OH; N-terminus assumed)
Avr lag time (h) ([1]; 1 mg/ml, TFA, Phosphate (7.4)): fnd (Fnd = fibrils not detected within experiment time (96 hours) with agitation.)
Visual appearance ([2]; 1 mg/ml, TFA, Phosphate (7.4)): Clear
cAMP antagonism % inhib (human GIP receptor): 83%

CC[C@H](C)[C@H](NC(=O)[C@H](CCCCN)NC(=O)[C@H](CCC(=O)O)NC(=O)[C@H](CC(C)C)NC(=O)C(C)(C)NC(=O)[C@@H](NC(=O)[C@H](CO)NC(=O)[C@H](Cc1ccc(O)cc1)NC(=O)[C@H](CCC(=O)O)NC(=O)[C@H](CO)NC(=O)[C@@H](NC(=O)[C@H](Cc1ccccc1)NC(=O)[C@@H](NC(=O)CNC(=O)[C@@H](N)CCC(=O)O)[C@@H](C)O)[C@@H](C)CC)[C@@H](C)CC)C(=O)N[C@@H](CCCCNC(=O)COCCOCCNC(=O)COCCOCCNC(=O)CC[C@H](NC(=O)CCCCCCCCCCCCCCCCC(=O)O)C(=O)O)C(=O)N[C@@H](CCC(N)=O)C(=O)N[C@@H](CCC(N)=O)C(=O)N[C@@H](CCC(=O)O)C(=O)N[C@@H](Cc1ccccc1)C(=O)N[C@H](C(=O)N[C@@H](CCC(=O)O)C(=O)N[C@@H](Cc1c[nH]c2ccccc12)C(=O)N[C@@H](CC(C)C)C(=O)N[C@@H](CC(C)C)C(=O)N[C@@H](C)C(=O)N[C@@H](CCC(N)=O)C(=O)N[C@@H](CCCCN)C(=O)N1CCC[C@H]1C(=O)N[C@@H](CO)C(=O)N[C@@H](CO)C(=O)NCC(=O)N[C@@H](C)C(=O)N1CCC[C@H]1C(=O)N1CCC[C@H]1C(=O)N1CCC[C@H]1C(=O)N[C@@H](CO)C(=O)O)C(C)C [AT695] (H-EGTFISEYSI[Aib]LEKIK([AEEA-AEEA-γGlu-C18 diacid])QQEFVEWLLAQKPSSGAPPPS-OH; N-terminus assumed)
Avr lag time (h) ([1]; 1 mg/ml, TFA, Phosphate (7.4)): fnd (Fnd = fibrils not detected within experiment time (96 hours) with agitation.)
Avr lag time (h) ([1]; 5 mg/ml, Na, MilliQ (8)): fnd (Fnd = fibrils not detected within experiment time (96 hours) with agitation.)
Visual appearance ([2]; 1 mg/ml, TFA, Phosphate (7.4)): Clear
Visual appearance ([2]; 5 mg/ml, Na, MilliQ (8)): Clear
cAMP antagonism % inhib (human GIP receptor): 98%
IC50 (human GIP receptor; HEK-293 cells transiently expressing hGIPR, agonist GIP1-42 at EC50, read-out: cAMP antagonism): 0.794 nM

CC[C@H](C)[C@H](NC(=O)[C@H](CO)NC(=O)[C@H](Cc1ccc(O)cc1)NC(=O)[C@H](CCC(=O)O)NC(=O)[C@H](CO)NC(=O)[C@@H](NC(=O)[C@H](Cc1ccccc1)NC(=O)[C@@H](NC(=O)CNC(=O)[C@@H](N)CCC(=O)O)[C@@H](C)O)[C@@H](C)CC)C(=O)N[C@@H](C)C(=O)N[C@@H](CC(C)C)C(=O)N[C@@H](CCC(=O)O)C(=O)N[C@@H](CCCCN)C(=O)N[C@H](C(=O)N[C@@H](CCCCNC(=O)COCCOCCNC(=O)COCCOCCNC(=O)CC[C@H](NC(=O)CCCCCCCCCCCCCCCCC(=O)O)C(=O)O)C(=O)N[C@@H](CCC(N)=O)C(=O)N[C@@H](CCC(N)=O)C(=O)N[C@@H](CCC(=O)O)C(=O)N[C@@H](Cc1ccccc1)C(=O)N[C@H](C(=O)N[C@@H](CCC(=O)O)C(=O)N[C@@H](Cc1c[nH]c2ccccc12)C(=O)N[C@@H](CC(C)C)C(=O)N[C@@H](CC(C)C)C(=O)N[C@@H](C)C(=O)N[C@@H](CCC(N)=O)C(=O)N[C@@H](CCCCN)C(=O)N1CCC[C@H]1C(=O)N[C@@H](CO)C(=O)N[C@@H](CO)C(=O)NCC(=O)N[C@@H](C)C(=O)N1CCC[C@H]1C(=O)N1CCC[C@H]1C(=O)N1CCC[C@H]1C(=O)N[C@@H](CO)C(=O)O)C(C)C)[C@@H](C)CC [AT693] (H-EGTFISEYSIALEKIK([AEEA-AEEA-γGlu-C18 diacid])QQEFVEWLLAQKPSSGAPPPS-OH; N-terminus assumed)
Avr lag time (h) ([1]; 1 mg/ml, TFA, Phosphate (7.4)): fnd (Fnd = fibrils not detected within experiment time (96 hours) with agitation.)
Visual appearance ([2]; 1 mg/ml, TFA, Phosphate (7.4)): Clear
cAMP antagonism % inhib (human GIP receptor): 96%
